# Measurements as given in ChEMBL document CHEMBL1909046, “DrugMatrix in vitro pharmacology data”.
# pIC50, pKi: −log10 of the molar value.
# Legend:
# [1] = molecular target: Kappa-type opioid receptor (Homo sapiens, UniProt P41145); assay: DRUGMATRIX: Opiate kappa (OP2, KOP) radioligand binding (ligand: [3H] Diprenorphine); format: cell membranes, HEK293, Membrane; conditions: hek293; Not Active = under 50% inhibition at 10 µM
# [2] = molecular target: T1, C-C chemokine receptor type 4 (Homo sapiens, UniProt P51679); format: cell membranes, Membrane; conditions: chem-1; also: in other assays of this panel Not Active means under 50% inhibition at 10 µM
# T1 sequence (P51679 whole entry): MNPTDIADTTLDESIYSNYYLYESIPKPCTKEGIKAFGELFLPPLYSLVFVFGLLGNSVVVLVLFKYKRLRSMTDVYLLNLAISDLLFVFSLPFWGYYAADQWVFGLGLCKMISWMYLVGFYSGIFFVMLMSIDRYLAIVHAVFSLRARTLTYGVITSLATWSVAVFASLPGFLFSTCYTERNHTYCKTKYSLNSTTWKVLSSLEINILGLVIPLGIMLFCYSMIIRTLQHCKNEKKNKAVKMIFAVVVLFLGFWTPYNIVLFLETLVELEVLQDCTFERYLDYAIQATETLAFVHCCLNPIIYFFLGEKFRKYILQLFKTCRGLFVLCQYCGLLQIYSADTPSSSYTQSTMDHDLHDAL
# [3] = molecular target: T2, Polyunsaturated fatty acid lipoxygenase ALOX15 (Oryctolagus cuniculus, UniProt P12530); assay: biochemical; format: tissue-based, Reticulocytes; conditions: reticulocytes;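 also: inhibition of 15-lipoxygenase enzyme activity measured with linoleic acid as the substrate; in other assays of this panel Not Active means under 50% inhibition at 10 µM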
# T2 sequence (P12530 whole entry): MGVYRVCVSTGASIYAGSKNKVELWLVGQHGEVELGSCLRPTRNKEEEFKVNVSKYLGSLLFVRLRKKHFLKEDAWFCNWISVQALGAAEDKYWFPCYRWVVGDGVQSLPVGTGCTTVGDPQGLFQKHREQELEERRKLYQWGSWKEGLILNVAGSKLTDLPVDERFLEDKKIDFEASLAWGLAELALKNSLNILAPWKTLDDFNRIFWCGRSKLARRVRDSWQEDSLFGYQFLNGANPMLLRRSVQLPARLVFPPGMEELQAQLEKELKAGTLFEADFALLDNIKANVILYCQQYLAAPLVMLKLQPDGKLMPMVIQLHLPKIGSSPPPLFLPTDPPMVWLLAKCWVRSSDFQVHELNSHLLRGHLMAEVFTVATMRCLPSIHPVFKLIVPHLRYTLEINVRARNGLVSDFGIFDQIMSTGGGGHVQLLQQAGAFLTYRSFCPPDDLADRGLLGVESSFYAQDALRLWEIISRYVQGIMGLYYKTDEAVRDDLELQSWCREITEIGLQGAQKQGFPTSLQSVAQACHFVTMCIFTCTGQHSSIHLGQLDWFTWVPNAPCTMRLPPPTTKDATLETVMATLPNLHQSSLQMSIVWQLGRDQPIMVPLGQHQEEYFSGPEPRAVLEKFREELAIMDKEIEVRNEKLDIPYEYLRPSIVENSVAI
# [4] = molecular target: Protein kinase C alpha type (Homo sapiens, UniProt P17252); format: cell-based; conditions: sf9;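 also: inhibition of PKCalpha kinase activity measured in an enzyme assay with histone as the phosphorylation substrate; in other assays of this panel Not Active means under 50% inhibition at 10 µM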
# [5] = molecular target: T3, Muscarinic acetylcholine receptor M2 (Homo sapiens, UniProt P08172); format: cell membranes, CHO-K1, Membrane; conditions: for IC50: cho-k1; as to all read-outs here: in other assays of this panel Not Active means under 50% inhibition at 10 µM
# T3 sequence (P08172 whole entry): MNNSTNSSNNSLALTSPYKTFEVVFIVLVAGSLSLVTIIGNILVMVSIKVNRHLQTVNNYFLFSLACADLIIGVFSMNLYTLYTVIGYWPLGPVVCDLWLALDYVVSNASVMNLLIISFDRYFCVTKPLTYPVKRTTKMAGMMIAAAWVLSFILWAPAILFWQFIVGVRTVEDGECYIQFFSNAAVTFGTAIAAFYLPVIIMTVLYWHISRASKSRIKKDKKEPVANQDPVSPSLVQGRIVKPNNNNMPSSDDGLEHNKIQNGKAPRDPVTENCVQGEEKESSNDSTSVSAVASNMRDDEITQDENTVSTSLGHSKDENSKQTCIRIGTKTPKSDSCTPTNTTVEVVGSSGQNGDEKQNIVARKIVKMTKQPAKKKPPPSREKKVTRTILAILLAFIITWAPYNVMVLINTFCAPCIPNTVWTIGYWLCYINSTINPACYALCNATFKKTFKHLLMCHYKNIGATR
# Nitric oxide synthase 1 = Nitric oxide synthase 1 (Rattus norvegicus, UniProt P29476); format: tissue-based, Cerebellum; also: in other assays of this panel Not Active means under 50% inhibition at 10 µM
# Nitric oxide synthase 1, sequence (P29476 whole entry): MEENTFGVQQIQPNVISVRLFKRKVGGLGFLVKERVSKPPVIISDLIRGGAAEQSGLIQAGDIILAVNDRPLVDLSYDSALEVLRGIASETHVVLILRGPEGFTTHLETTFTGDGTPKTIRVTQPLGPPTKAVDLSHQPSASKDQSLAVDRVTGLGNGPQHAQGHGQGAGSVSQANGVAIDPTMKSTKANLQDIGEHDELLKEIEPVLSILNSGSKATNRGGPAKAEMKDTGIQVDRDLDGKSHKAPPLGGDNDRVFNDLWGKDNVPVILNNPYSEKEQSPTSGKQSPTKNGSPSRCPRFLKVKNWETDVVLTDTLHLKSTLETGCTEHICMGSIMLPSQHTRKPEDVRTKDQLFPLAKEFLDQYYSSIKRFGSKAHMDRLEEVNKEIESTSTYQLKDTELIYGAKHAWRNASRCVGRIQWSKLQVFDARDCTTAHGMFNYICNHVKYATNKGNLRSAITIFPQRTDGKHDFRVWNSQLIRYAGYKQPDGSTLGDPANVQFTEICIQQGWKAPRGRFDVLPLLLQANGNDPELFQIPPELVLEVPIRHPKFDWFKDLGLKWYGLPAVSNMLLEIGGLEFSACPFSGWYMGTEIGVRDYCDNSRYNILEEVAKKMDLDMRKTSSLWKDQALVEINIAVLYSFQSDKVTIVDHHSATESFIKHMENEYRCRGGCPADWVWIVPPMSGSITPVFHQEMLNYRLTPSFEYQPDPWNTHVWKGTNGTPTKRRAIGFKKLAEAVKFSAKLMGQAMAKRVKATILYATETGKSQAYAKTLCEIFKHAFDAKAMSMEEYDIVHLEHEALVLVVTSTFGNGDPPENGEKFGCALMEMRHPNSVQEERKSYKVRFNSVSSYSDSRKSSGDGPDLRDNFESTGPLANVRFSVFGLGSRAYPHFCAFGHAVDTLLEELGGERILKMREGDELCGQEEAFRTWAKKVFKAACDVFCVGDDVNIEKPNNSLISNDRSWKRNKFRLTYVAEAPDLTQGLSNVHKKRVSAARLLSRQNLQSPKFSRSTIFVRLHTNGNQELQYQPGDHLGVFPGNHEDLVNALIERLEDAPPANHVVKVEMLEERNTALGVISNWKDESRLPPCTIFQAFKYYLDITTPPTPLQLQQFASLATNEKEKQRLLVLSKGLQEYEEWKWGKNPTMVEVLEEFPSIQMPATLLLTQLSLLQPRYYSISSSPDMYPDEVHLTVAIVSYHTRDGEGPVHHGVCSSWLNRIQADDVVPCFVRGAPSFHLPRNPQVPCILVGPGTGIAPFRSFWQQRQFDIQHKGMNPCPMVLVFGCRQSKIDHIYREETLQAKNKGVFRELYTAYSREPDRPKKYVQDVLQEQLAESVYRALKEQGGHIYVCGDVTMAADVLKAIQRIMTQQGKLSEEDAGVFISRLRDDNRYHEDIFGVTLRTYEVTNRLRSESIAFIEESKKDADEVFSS
# [6] = molecular target: T4, Nitric oxide synthase, inducible (Mus musculus, UniProt P29477); set-up: species or system Escherichia coli
# T4 sequence (P29477 whole entry): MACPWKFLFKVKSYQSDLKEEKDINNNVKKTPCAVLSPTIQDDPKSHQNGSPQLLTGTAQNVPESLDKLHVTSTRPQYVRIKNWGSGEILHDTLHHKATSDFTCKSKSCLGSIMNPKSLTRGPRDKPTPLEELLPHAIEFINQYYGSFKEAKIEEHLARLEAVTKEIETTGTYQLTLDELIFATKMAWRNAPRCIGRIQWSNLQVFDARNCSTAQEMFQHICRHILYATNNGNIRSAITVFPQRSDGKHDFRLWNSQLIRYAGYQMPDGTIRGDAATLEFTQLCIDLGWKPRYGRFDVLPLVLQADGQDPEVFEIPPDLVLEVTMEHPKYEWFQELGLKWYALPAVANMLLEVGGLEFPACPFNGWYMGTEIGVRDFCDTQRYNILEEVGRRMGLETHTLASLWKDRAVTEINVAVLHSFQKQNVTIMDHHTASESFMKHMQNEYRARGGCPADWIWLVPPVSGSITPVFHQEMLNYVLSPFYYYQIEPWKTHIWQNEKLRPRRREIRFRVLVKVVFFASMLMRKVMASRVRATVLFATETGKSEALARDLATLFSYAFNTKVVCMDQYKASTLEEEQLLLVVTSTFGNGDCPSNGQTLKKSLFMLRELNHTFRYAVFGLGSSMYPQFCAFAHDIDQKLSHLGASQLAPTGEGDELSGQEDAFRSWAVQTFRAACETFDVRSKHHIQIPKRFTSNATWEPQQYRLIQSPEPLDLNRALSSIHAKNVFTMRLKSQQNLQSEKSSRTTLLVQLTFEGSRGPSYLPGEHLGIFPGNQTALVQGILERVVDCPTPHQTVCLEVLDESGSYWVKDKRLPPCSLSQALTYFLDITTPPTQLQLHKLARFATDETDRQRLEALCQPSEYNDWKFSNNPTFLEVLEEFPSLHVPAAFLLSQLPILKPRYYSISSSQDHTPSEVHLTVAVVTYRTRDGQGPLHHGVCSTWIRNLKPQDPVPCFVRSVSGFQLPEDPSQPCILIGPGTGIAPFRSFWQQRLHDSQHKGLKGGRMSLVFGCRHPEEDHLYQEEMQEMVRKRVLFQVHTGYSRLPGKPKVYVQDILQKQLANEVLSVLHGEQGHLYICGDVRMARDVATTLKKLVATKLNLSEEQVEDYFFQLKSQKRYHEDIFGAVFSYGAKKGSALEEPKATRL
# [7] = DRUGMATRIX: Glutamate, NMDA, Agonism radioligand binding (ligand: [3H] CGP-39653); format: cell membranes, Rattus norvegicus, Wistar, Cerebral cortex, Membrane; conditions: Not Active = under 50% inhibition at 10 µM
# Kappa-type opioid receptor, sequence (P41145 whole entry): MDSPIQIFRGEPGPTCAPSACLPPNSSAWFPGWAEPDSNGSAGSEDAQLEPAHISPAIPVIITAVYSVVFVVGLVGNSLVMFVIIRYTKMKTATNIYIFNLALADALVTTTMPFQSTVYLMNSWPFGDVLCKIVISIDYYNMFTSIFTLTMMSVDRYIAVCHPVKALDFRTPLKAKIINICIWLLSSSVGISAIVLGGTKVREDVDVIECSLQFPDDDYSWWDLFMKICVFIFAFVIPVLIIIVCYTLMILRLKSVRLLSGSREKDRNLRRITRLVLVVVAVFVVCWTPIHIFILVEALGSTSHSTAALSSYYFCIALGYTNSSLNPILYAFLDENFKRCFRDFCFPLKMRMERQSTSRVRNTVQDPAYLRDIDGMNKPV
Structure (SMILES),IC50 [1],IC50 [2],IC50 [3],IC50 [4],IC50 [5],IC50 (Nitric oxide synthase 1),IC50 [6],IC50 [7],Ki [7],pIC50 ([5]; read-out: IC50),pKi ([5]; read-out: Ki)
CC(C)n1c(/C=C/C(O)CC(O)CC(=O)O)c(-c2ccc(F)cc2)c2ccccc21 (configuration not stated) [FLUVASTATIN],Not Active,Not Active,Not Active,Not Active,Not Active,Not Active,Not Active,Not Active,Not Active,,
CC(=O)OCC(=O)[C@@]1(OC(C)=O)[C@@H](C)C[C@H]2[C@@H]3C[C@H](F)C4=CC(=O)C=C[C@]4(C)[C@@]3(F)[C@@H](O)C[C@@]21C [DIFLORASONE DIACETATE],Not Active,Not Active,Not Active,Not Active,Not Active,Not Active,Not Active,Not Active,Not Active,,
CC1(C)S[C@@H]2[C@H](NC(=O)[C@H](N)c3ccc(O)cc3)C(=O)N2[C@H]1C(=O)O [AMOXICILLIN],Not Active,Not Active,Not Active,Not Active,Not Active,Not Active,Not Active,Not Active,Not Active,,
C[C@]12CCC(=O)C=C1CC[C@@H]1[C@@H]2C(=O)C[C@@]2(C)[C@H]1CC[C@]2(O)C(=O)CO [CORTISONE],Not Active,Not Active,Not Active,Not Active,Not Active,Not Active,Not Active,Not Active,Not Active,,
CNCCC=C1c2ccccc2CCc2ccccc21 [NORTRIPTYLINE],Not Active,Not Active,Not Active,Not Active,,Not Active,Not Active,Not Active,Not Active,6.46,6.91
CC[C@@]1(O)C(=O)OCc2c1cc1n(c2=O)Cc2cc3ccccc3nc2-1 [CAMPTOTHECIN],Not Active,Not Active,Not Active,Not Active,Not Active,Not Active,Not Active,Not Active,Not Active,,
COc1ccc2c(c1)c(CC(=O)OCC(=O)O)c(C)n2C(=O)c1ccc(Cl)cc1 [ACEMETACIN],Not Active,Not Active,Not Active,Not Active,Not Active,Not Active,Not Active,Not Active,Not Active,,
N=C(N)NCCCCNC(=N)N.O=S(=O)(O)O [ARCAINE SULFATE],Not Active,Not Active,Not Active,Not Active,Not Active,Not Active,Not Active,Not Active,Not Active,,
CCCCOC(=O)c1ccc(N)cc1 [BUTAMBEN],Not Active,Not Active,Not Active,Not Active,Not Active,Not Active,Not Active,Not Active,Not Active,,
CCOC(=O)c1ccc(N)cc1 [BENZOCAINE],Not Active,Not Active,Not Active,Not Active,Not Active,Not Active,Not Active,Not Active,Not Active,,
CC1=Nc2ccc(Cl)cc2S(=O)(=O)N1 [DIAZOXIDE],Not Active,Not Active,Not Active,Not Active,Not Active,Not Active,Not Active,Not Active,Not Active,,
COC(=O)[C@H](c1ccccc1Cl)N1CCc2sccc2C1 [CLOPIDOGREL],Not Active,Not Active,Not Active,Not Active,Not Active,Not Active,Not Active,Not Active,Not Active,,
O=c1cc(-c2ccccc2)oc2c1ccc1ccccc12 [ALPHA-NAPHTHOFLAVONE],Not Active,Not Active,Not Active,Not Active,Not Active,Not Active,Not Active,Not Active,Not Active,,
NS(=O)(=O)c1cc2c(cc1Cl)NCNS2(=O)=O [HYDROCHLOROTHIAZIDE],Not Active,Not Active,Not Active,Not Active,Not Active,Not Active,Not Active,Not Active,Not Active,,
